# Data from patent US8147818B2, “Hepatitis C virus inhibitors” (Bristol-Myers Squibb Company, priority 2008, dated 2012).
# Test system: HCV 1b-377-neo replicon cells
# Test: HCV Replicon assay, HCV 1b-377-neo replicon cells
# Format: cell-based, HCV 1b genotype
# Settings: Hepatitis C virus, read-out: EC50 against HCV 1b (Activity or Range)
# Description: An HCV Replicon assay was utilized in the present disclosure, and was prepared, conducted and validated as described in commonly owned PCT/US2006/022197 and in O'Boyle et. al. Antimicrob Agents Chemother. 2005 April; 49(4):1346-53.
# HCV 1b-377-neo replicon cells were used to test the currently described compound series as well as cells resistant to compound A containing a Y2065H mutation in NS5A (described in application PCT/US2006/022197). The compounds tested were determined to have more than 10-fold less inhibitory activity on cells containing the mutation than wild-type cells indicating a related mechanism of action between the two compound series. Thus, the compounds of the present disclosure can be effective to inhibit the function of the HCV NS5A protein and are understood to be as effective in combinations as previously described in application PCT/US2006/022197 and commonly owned WO/O4014852. Further, the compounds of the present disclosure can be effective against the HCV 1b genotype. It should also be understood that the compounds of the present disclosure can inhibit multiple genotypes of HCV. […] In one embodiment compounds of the present disclosure are active against the 1a, 1b, 2a, 2b, 3a, 4a, and 5a genotypes.
row,Compound,EC50 [nM]
1,CCN(CC)[C@@H](C(=O)N1CC(F)(F)C[C@H]1c1ncc(-c2ccc(-c3ccc4c(ccc5[nH]c([C@@H]6CCCN6C(=O)[C@@H](c6ccccc6)N(CC)CC)nc54)c3)cc2)[nH]1)c1ccccc1 [Example 22w.a],0.12

# Same assay, conditions: Hepatitis C virus, read-out: EC50 against HCV 1b (Activity or Range), range class
row,Compound,EC50 [nM]
1,CCN(CC)[C@@H](C(=O)N1CCC[C@H]1c1nc2c([nH]1)CCCc1cc(-c3ccc4c(c3)CCCc3[nH]c([C@@H]5CCCN5C(=O)[C@@H](c5ccccc5)N(CC)CC)nc3-4)ccc1-2)c1ccccc1 [Example 22k.1],0.001 to 0.1
2,COC(=O)N[C@@H](C)C(=O)N1CCC[C@H]1c1ncc(-c2ccc(-c3ccc4c(c3)CCCc3[nH]c([C@@H]5CCCN5C(=O)[C@@H](NC(=O)OC)C(C)C)nc3-4)cc2)[nH]1 [Example 24.b],0.001 to 0.1
3,CCN(CC)[C@@H](C(=O)N1CCC[C@H]1c1ncc(-c2ccc(-c3ccc4c(c3)CCc3[nH]c([C@@H]5CCCN5C(=O)[C@@H](c5ccccc5)N(CC)CC)nc3-4)cc2)[nH]1)c1ccccc1 [Example 22r.a],0.001 to 0.1
4,COC(=O)N[C@H](C(=O)N1CCC[C@H]1c1ncc(-c2ccc(-c3ccc4c(c3)CCCCc3c-4nc([C@@H]4CCCN4C(=O)[C@@H](NC(=O)OC)C(C)C)n3O)cc2)[nH]1)C(C)C [Example 22q],0.001 to 0.1
5,CCN(CC)[C@@H](C(=O)N1[C@@H]2C[C@@H]2C[C@H]1c1ncc(-c2ccc(-c3ccc4c(c3)CCc3[nH]c([C@@H]5C[C@H]6C[C@H]6N5C(=O)[C@@H](c5ccccc5)N(CC)CC)nc3-4)cc2F)[nH]1)c1ccccc1 [Example 22s.1a],0.001 to 0.1
6,CCN(CC)[C@@H](C(=O)N1CCC[C@H]1c1ncc(-c2ccc(-c3ccc4c(c3)CCc3[nH]c([C@@H]5CCCN5C(=O)[C@@H](c5ccccc5)N(CC)CC)nc3-4)cc2F)[nH]1)c1ccccc1 [Example 22s.a],0.001 to 0.1
7,CCN(CC)[C@@H](C(=O)N1CCC[C@H]1c1nc2c(ccc3cc(-c4ccc5c(ccc6nc([C@@H]7CCCN7C(=O)[C@@H](c7ccccc7)N(CC)CC)[nH]c65)c4)ccc32)[nH]1)c1ccccc1 [Example 22u.2a],0.001 to 0.1
8,COC(=O)N[C@H](C(=O)N[C@@H](C)c1ncc(-c2ccc(-c3ccc4c(c3)CCCc3[nH]c([C@H](C)NC(=O)[C@@H](NC(=O)OC)C(C)C)nc3-4)cc2)[nH]1)C(C)C [Example 22d],0.001 to 0.1
9,CCN(CC)[C@@H](C(=O)N1CCC[C@H]1c1ncc(-c2ccc(-c3ccc4c(c3)CCCCc3c-4nc([C@@H]4CCCN4C(=O)[C@@H](c4ccccc4)N(CC)CC)n3O)cc2)[nH]1)c1ccccc1 [Example 22q.1],0.001 to 0.1
10,COC(=O)N[C@H](C(=O)N1CCC[C@H]1c1nc2ccc3cc(-c4ccc5c(ccc6[nH]c([C@@H]7CCCN7C(=O)[C@H](O)c7ccccc7)nc65)c4)ccc3c2[nH]1)C(C)C [Example 24.1d],0.001 to 0.1
11,COC(=O)N[C@H](C(=O)N1CCC[C@H]1c1nc2c([nH]1)CCCc1cc(-c3ccc(-c4cnc([C@@H]5CCCN5C(=O)CN(C)C)[nH]4)cc3)ccc1-2)C(C)C [Example 24.a],0.001 to 0.1
12,COC(=O)N[C@H](C(=O)N1CCC[C@H]1c1ncc(-c2ccc(-c3ccc4c(ccc5[nH]c([C@@H]6CCCN6C(=O)[C@@H](NC(=O)OC)[C@@H](C)OC)nc54)c3)cc2)[nH]1)[C@H](C)OC [Example 22u.b],0.001 to 0.1
13,COC(=O)N[C@H](C(=O)N1CCC[C@H]1c1nc2ccc3cc(-c4ccc5c(ccc6[nH]c([C@@H]7CCCN7C(=O)[C@H](NC(=O)OC)c7ccccc7)nc65)c4)ccc3c2[nH]1)C(C)C [Example 24.1a],0.001 to 0.1
14,COC(=O)N[C@H](C(=O)N1[C@@H]2C[C@@H]2C[C@H]1c1ncc(-c2ccc(-c3ccc4c(c3)CCc3[nH]c([C@@H]5C[C@H]6C[C@H]6N5C(=O)[C@@H](NC(=O)OC)C(C)C)nc3-4)cc2F)[nH]1)C(C)C [Example 22s.1],0.001 to 0.1
